Activity calls are given as the source filed them. The calls are words filed in the database; no cut-off is given here.
Key:
[1] = target: Human immunodeficiency virus type 1 integrase (Human immunodeficiency virus 1, UniProt Q7ZJM1); test: Inhibitory activity against HIV-1 integrase
[2] = target: Human immunodeficiency virus type 1 integrase (Human immunodeficiency virus 1) (UniProt Q7ZJM1); test: Activity against HIV-1 integrase in range 5-20 uM compared to integric acid.
[3] = target: Human immunodeficiency virus type 1 integrase (Human immunodeficiency virus 1) (UniProt Q7ZJM1); test: Compound was tested for strand transfer activity against HIV-1 integrase at 50 uM; weak inhibition

Human immunodeficiency virus type 1 integrase (Human immunodeficiency virus 1), sequence (Q7ZJM1 as listed by the source): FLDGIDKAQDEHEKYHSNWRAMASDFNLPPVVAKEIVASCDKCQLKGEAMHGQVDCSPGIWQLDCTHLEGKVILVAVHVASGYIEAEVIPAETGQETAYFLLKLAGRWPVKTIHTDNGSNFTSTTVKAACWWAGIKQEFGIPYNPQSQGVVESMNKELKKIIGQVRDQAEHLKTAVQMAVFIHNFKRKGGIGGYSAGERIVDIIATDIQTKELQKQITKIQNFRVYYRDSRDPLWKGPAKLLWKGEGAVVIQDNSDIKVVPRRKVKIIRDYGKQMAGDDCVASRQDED
Human immunodeficiency virus type 1 integrase, sequence (Q7ZJM1 whole entry): as the sequence (Q7ZJM1 as listed by the source) above

| SMILES | IC50 [1] [µM] | Activity [2] | Activity [3] |
| --- | --- | --- | --- |
| CCCCC(C)/C=C(\C)C(=O)O[C@@H]1CC[C@H](C(=O)O)[C@@]2(C)C[C@@H]([C@H](C)C=O)C(=O)C=C12 (stereo not given in full) | 11 | Active | weak inhibition |
| CCCCC(C)/C=C(\C)C(=O)O[C@@H]1CC[C@H](C(=O)O)[C@@]2(C)C[C@@H](C(C)C(O)O)C(=O)C=C12 (stereo not given in full) | 40 |  |  |
| CCCCC(C)/C=C(\C)C(=O)O (stereo not given) | 12 | Active |  |
| CC1=C2C[C@@]3(C)C(=CCC[C@@H]3C(=O)O)C=C2OC1=O | > 100 |  |  |
| CCCCC(C)/C=C(\C)C(=O)O[C@@H]1CC[C@H](C(=O)O)[C@@]2(C)CC3C(C)C(O)OC3(O)C=C12 (stereo not given in full) | 40 |  |  |
| CCCCC(C)/C=C(\C)C(=O)O[C@@H]1CC[C@H](C(=O)O)[C@@]2(C)C[C@H]3[C@H](C)CO[C@]3(O)C[C@H]12 (stereo not given in full) | 100 |  |  |
| C=C(CO)[C@@H]1C[C@@]2(C)C(=C[C@H]1O)[C@H](OC(=O)/C(C)=C/C(C)CCCC)CC[C@@H]2C(=O)O (stereo not given in full) | 73 |  |  |
| C=C/C(C)=C1\C[C@@]2(C)C(=CC1=O)[C@H](OC(=O)/C(C)=C/C(C)CCCC)CC[C@@H]2C(=O)O (stereo not given in full) | 75 |  |  |
| CCCCC(C)/C=C(\C)C(=O)O[C@@H]1CC[C@H](C(=O)O)[C@@]2(C)CC([C@@H](C)C=O)C(=O)C=C12 (stereo not given in full) | 11 | Active | weak inhibition |
| CCCCC(C)/C=C(\C)C(=O)O[C@@H]1CC[C@H](C(=O)O)[C@@]2(C)C[C@H]3[C@@H](C)CO[C@]3(O)C[C@H]12 (stereo not given in full) | 45 |  |  |
| C=CC(=C)[C@@H]1C[C@@]2(C)C(=CC1=O)[C@H](OC(=O)/C(C)=C/C(C)CCCC)CC[C@@H]2C(=O)O (stereo not given in full) | 30 |  |  |
| C=C(C=O)[C@@H]1C[C@@]2(C)C(=CC1=O)[C@H](OC(=O)/C(C)=C/C(C)CCCC)CC[C@@H]2C(=O)O/C(=N\C1CCCCC1)NC1CCCCC1 (stereo not given in full) | 88 |  |  |

Results, then the compound that gave them:

| IC50 [1] [µM] | Activity [2] | Activity [3] | SMILES |
| --- | --- | --- | --- |
| 3 | Active |  | C=C(C=O)[C@@H]1C[C@@]2(C)C(=CC1=O)[C@H](OC(=O)/C(C)=C/C(C)CCCC)CC[C@@H]2C(=O)N[C@@H](CC(C)C)C(=O)OC (stereo not given in full) |
| 81 |  |  | C=C(C=O)[C@@H]1C[C@@]2(C)C(=CC1=O)[C@H](OC(=O)/C(C)=C/C(C)CCCC)CC[C@@H]2C(=O)OP(=O)(OCC)OCC (stereo not given in full) |
| 5 | Active |  | C=C(C=O)[C@@H]1C[C@@]2(C)C(=CC1=O)[C@H](OC(=O)/C(C)=C/C(C)CCCC)CC[C@@H]2C(=O)ON[C@H](C(=O)OC)c1ccccc1 (stereo not given in full) |
| 10 | Active |  | C=C(C=O)[C@@H]1C[C@@]2(C)C(=CC1=O)[C@H](OC(=O)/C(C)=C/C(C)CCCC)CC[C@@H]2C(=O)NCCNC(=O)[C@H]1CC[C@@H](OC(=O)/C(C)=C/C(C)CCCC)C2=CC(=O)[C@H](C(=C)C=O)C[C@@]21C (stereo not given in full) |
| 3 | Active |  | C=C(C=O)[C@@H]1C[C@@]2(C)C(=CC1=O)[C@H](OC(=O)/C(C)=C/C(C)CCCC)CC[C@@H]2C(=O)O (stereo not given in full) |
| 5 | Active |  | C=C(C=O)[C@@H]1C[C@@]2(C)C(=CC1=O)[C@H](OC(=O)/C(C)=C/C(C)CCCC)CC[C@@H]2C(=O)ON[C@@H](C(=O)OC)c1ccccc1 (stereo not given in full) |
| 24 | Active |  | C=C(C=O)[C@@H]1C[C@@]2(C)C(=CC1=O)[C@H](OC(=O)/C(C)=C/C(C)CCCC)CC[C@@H]2C(=O)N1CCN(C(=O)[C@H]2CC[C@@H](OC(=O)/C(C)=C/C(C)CCCC)C3=CC(=O)[C@H](C(=C)C=O)C[C@@]32C)CC1 (stereo not given in full) |

— ChEMBL document CHEMBL1133373, “Chemical and enzymatic modifications of integric acid and HIV-1 integrase inhibitory activity” (Bioorg Med Chem Lett, 2000)
